By IC50 is commonly meant the concentration needed to halve the response being measured.

SMILES strings stand for the structures. *1 amine or outer side, *2 acyl side, *3 side chain or, on linkers, in order; H or OH if unused. Where a SMILES comes first, the peptide text is derived from it. Bridges are numbered along the chain shown (N, C = ends). [ ]: non-standard residue; d: D form. The star is where a group is joined. Phe(3-CH2NH2) = O=C([C@H](Cc1cccc(CN[*:3])c1)N[*:1])[*:2]; Bip = N[C@@H](Cc1ccc(-c2ccccc2)cc1)C(=O)O; AEF = NCCOc1ccc(C[C@H](N)C(=O)O)cc1; Cha = N[C@@H](CC1CCCCC1)C(=O)O; Carboxymethyl = O=C(O)C*; Orn = NCCC[C@H](N)C(=O)O; Dab = NCC[C@H](N)C(=O)O; Dap = NC[C@H](N)C(=O)O

Among the data in US20250163104A1, “MACROCYCLIC IMMUNOMODULATORS” (priority 2021, published 2025) are IC50 values, retold here.

T1 sequence (Q15116 25-288): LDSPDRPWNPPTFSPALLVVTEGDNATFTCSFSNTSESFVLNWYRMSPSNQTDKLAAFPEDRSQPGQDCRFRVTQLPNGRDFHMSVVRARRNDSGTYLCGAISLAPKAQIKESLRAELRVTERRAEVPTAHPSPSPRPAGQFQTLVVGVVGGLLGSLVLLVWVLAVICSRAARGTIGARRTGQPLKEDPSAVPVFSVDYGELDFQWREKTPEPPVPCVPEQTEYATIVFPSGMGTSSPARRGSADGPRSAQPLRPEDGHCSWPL

This assay addresses T1, human PD-1 / PD-L1-Ig binding on Jurkat cell line over-expressing human PD-1 (Jurkat-PD-1) (Homo sapiens, UniProt Q15116).
T1 construct: expressed in transfected cells; host or cells: Jurkat
In words: Jurkat-PD-1 Cell Binding High-Content Screening Assay (CBA). The class given is cell-based. The note with it: Jurkat-PD-1 cells, PE-labeled PD-L1-Ig 20 nM final; read-out: Jurkat HPD1_PDL1 IC50. The essentials: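 Binding of fluorescent PD-L1-Ig (phycoerythrin linked via the Ig tag, 20 nM final) to PD-1-overexpressing Jurkat cells was imaged after a 2 h, 37° C compound pretreatment and 1 hour ligand incubation.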
For the compound `CC(C)C[C@H]1NC(=O)[C@H](CCCN)NC(=O)[C@H](CCC(=O)O)NC(=O)[C@H](Cc2ccc(-c3ccccc3)cc2)NC(=O)[C@H](C(C)C)NC(=O)[C@H](Cc2c[nH]c3ccccc23)NC(=O)[C@H](CC(=O)O)NC(=O)[C@H](Cc2ccc(OCC(=O)O)cc2)NC(=O)[C@H](CN)NC(=O)CSC[C@@H](C(=O)N[C@@H](C)C(N)=O)NC(=O)[C@H]([C@@H](C)O)NC(=O)[C@H](C(C)C)NC(=O)[C@H](Cc2cccc(CN)c2)NC(=O)[C@H](CCN)NC1=O` [Compound 1508] ({CH2CO}-[Dap]Y(Carboxymethyl)DWV[Bip]E[Orn][dL][Dab][Phe(3-CH2NH2)]VTCA-NH2; thioether N-14), the IC50 was found to be 163 nM.

On to `CC(C)C[C@H]1NC(=O)[C@H](CCCN)NC(=O)[C@H](CCC(=O)O)NC(=O)[C@H](Cc2ccc(-c3ccccc3)cc2)NC(=O)[C@H](C(C)C)NC(=O)[C@H](Cc2c[nH]c3ccccc23)NC(=O)[C@H](CC(=O)O)NC(=O)[C@H](Cc2ccc(OCC(=O)O)cc2)NC(=O)[C@H](CN)NC(=O)CSC[C@@H](C(=O)N[C@@H](C)C(N)=O)NC(=O)[C@H]([C@@H](C)O)NC(=O)[C@H](C(C)C)NC(=O)[C@H](Cc2ccn[nH]2)NC(=O)[C@H](CCN)NC1=O` [Compound 1509], for which the IC50 came out at 413 nM.

Turning to `CC(C)C[C@H]1NC(=O)[C@H](CCCN)NC(=O)[C@H](CCC(=O)O)NC(=O)[C@H](Cc2ccc(-c3ccccc3)cc2)NC(=O)[C@H](C(C)C)NC(=O)[C@H](Cc2c[nH]c3ccccc23)NC(=O)[C@H](CC(=O)O)NC(=O)[C@H](Cc2ccc(OCC(=O)O)cc2)NC(=O)[C@H](CN)NC(=O)CSC[C@@H](C(=O)N[C@@H](C)C(N)=O)NC(=O)[C@H]([C@@H](C)O)NC(=O)[C@H](C(C)C)NC(=O)[C@H](Cc2cscn2)NC(=O)[C@H](CCN)NC1=O` [Compound 1510], the half-inhibitory concentration (IC50) is 25.7 nM.

In the case of `CC(C)C[C@H]1NC(=O)[C@H](CCCN)NC(=O)[C@H](CCC(=O)O)NC(=O)[C@H](Cc2ccc(-c3ccccc3)cc2)NC(=O)[C@H](C(C)C)NC(=O)[C@H](Cc2c[nH]c3ccccc23)NC(=O)[C@H](CC(=O)O)NC(=O)[C@H](Cc2ccc(OCC(=O)O)cc2)NC(=O)[C@H](CN)NC(=O)CSC[C@@H](C(=O)N[C@@H](C)C(N)=O)NC(=O)[C@H]([C@@H](C)O)NC(=O)[C@H](C(C)C)NC(=O)[C@H](Cc2ccc(OCCN)cc2)NC(=O)[C@H](CCN)NC1=O` [Compound 1511] ({CH2CO}-[Dap]Y(Carboxymethyl)DWV[Bip]E[Orn][dL][Dab][AEF]VTCA-NH2; thioether N-14), the IC50 was determined as 737 nM.

`CC(C)C[C@H]1NC(=O)[C@H](CCCN)NC(=O)[C@H](CCC(=O)O)NC(=O)[C@H](Cc2ccc(-c3ccccc3)cc2)NC(=O)[C@H](C(C)C)NC(=O)[C@H](Cc2c[nH]c3ccccc23)NC(=O)[C@H](CC(=O)O)NC(=O)[C@H](Cc2ccc(OCC(=O)O)cc2)NC(=O)[C@H](CN)NC(=O)CSC[C@@H](C(=O)N[C@@H](C)C(N)=O)NC(=O)[C@H]([C@@H](C)O)NC(=O)[C@H](C(C)C)NC(=O)[C@H](CC2CCCCC2)NC(=O)[C@H](CC(N)=O)NC1=O` [Compound 1512] ({CH2CO}-[Dap]Y(Carboxymethyl)DWV[Bip]E[Orn][dL]N[Cha]VTCA-NH2; thioether N-14): the IC50 turned out to be 22.9 nM.

In the case of `CC(C)C[C@H]1NC(=O)[C@H](CCCN)NC(=O)[C@H](CCC(=O)O)NC(=O)[C@H](Cc2ccc(-c3ccccc3)cc2)NC(=O)[C@H](C(C)C)NC(=O)[C@H](Cc2c[nH]c3ccccc23)NC(=O)[C@H](CC(=O)O)NC(=O)[C@H](Cc2ccc(OCC(=O)O)cc2)NC(=O)[C@H](CN)NC(=O)CSC[C@@H](C(=O)N[C@@H](C)C(N)=O)NC(=O)[C@H]([C@@H](C)O)NC(=O)[C@H](C(C)C)NC(=O)[C@H](CC2CCCCC2)NC(=O)[C@H](CCC(N)=O)NC1=O` [Compound 1513] ({CH2CO}-[Dap]Y(Carboxymethyl)DWV[Bip]E[Orn][dL]Q[Cha]VTCA-NH2; thioether N-14), the IC50 came to 25.7 nM.

Take `CC(C)C[C@H]1NC(=O)[C@H](CCCN)NC(=O)[C@H](CCC(=O)O)NC(=O)[C@H](Cc2ccc(-c3ccccc3)cc2)NC(=O)[C@H](C(C)C)NC(=O)[C@H](Cc2c[nH]c3ccccc23)NC(=O)[C@H](CC(=O)O)NC(=O)[C@H](Cc2ccc(OCC(=O)O)cc2)NC(=O)[C@H](CN)NC(=O)CSC[C@@H](C(=O)N[C@@H](C)C(N)=O)NC(=O)[C@H]([C@@H](C)O)NC(=O)[C@H](C(C)C)NC(=O)[C@H](CC2CCCCC2)NC(=O)[C@H](CC(=O)O)NC1=O` [Compound 1514] ({CH2CO}-[Dap]Y(Carboxymethyl)DWV[Bip]E[Orn][dL]D[Cha]VTCA-NH2; thioether N-14): the half-inhibitory concentration (IC50) is 34.8 nM.

Take `CC(C)C[C@H]1NC(=O)[C@H](CCCN)NC(=O)[C@H](CCC(=O)O)NC(=O)[C@H](Cc2ccc(-c3ccccc3)cc2)NC(=O)[C@H](C(C)C)NC(=O)[C@H](Cc2c[nH]c3ccccc23)NC(=O)[C@H](CC(=O)O)NC(=O)[C@H](Cc2ccc(OCC(=O)O)cc2)NC(=O)[C@H](CN)NC(=O)CSC[C@@H](C(=O)N[C@@H](C)C(N)=O)NC(=O)[C@H]([C@@H](C)O)NC(=O)[C@H](C(C)C)NC(=O)[C@H](CC2CCCCC2)NC(=O)[C@H](CCC(=O)O)NC1=O` [Compound 1515] ({CH2CO}-[Dap]Y(Carboxymethyl)DWV[Bip]E[Orn][dL]E[Cha]VTCA-NH2; thioether N-14): the IC50 was determined as 28.8 nM.

On to `CC(C)C[C@H]1NC(=O)[C@H](CCCN)NC(=O)[C@H](CCC(=O)O)NC(=O)[C@H](Cc2ccc(-c3ccccc3)cc2)NC(=O)[C@H](C(C)C)NC(=O)[C@H](Cc2c[nH]c3ccccc23)NC(=O)[C@H](CC(=O)O)NC(=O)[C@H](Cc2ccc(OCC(=O)O)cc2)NC(=O)[C@H](CN)NC(=O)CSC[C@@H](C(=O)N[C@@H](C)C(N)=O)NC(=O)[C@H]([C@@H](C)O)NC(=O)[C@H](C(C)C)NC(=O)[C@H](CC2CCCCC2)NC(=O)[C@H](CO)NC1=O` [Compound 1516] ({CH2CO}-[Dap]Y(Carboxymethyl)DWV[Bip]E[Orn][dL]S[Cha]VTCA-NH2; thioether N-14), for which the IC50 was 30 nM.

As to `CC(C)C[C@H]1NC(=O)[C@H](CCCN)NC(=O)[C@H](CCC(=O)O)NC(=O)[C@H](Cc2ccc(-c3ccccc3)cc2)NC(=O)[C@H](C(C)C)NC(=O)[C@H](Cc2c[nH]c3ccccc23)NC(=O)[C@H](CC(=O)O)NC(=O)[C@H](Cc2ccc(OCC(=O)O)cc2)NC(=O)[C@H](CN)NC(=O)CSC[C@@H](C(=O)N[C@@H](C)C(N)=O)NC(=O)[C@H]([C@@H](C)O)NC(=O)[C@H](C(C)C)NC(=O)[C@H](CC2CCCCC2)NC(=O)[C@H]([C@@H](C)O)NC1=O` [Compound 1517] ({CH2CO}-[Dap]Y(Carboxymethyl)DWV[Bip]E[Orn][dL]T[Cha]VTCA-NH2; thioether N-14), the IC50 came to 34.2 nM.

With `CC(C)C[C@H]1NC(=O)[C@H](CCCN)NC(=O)[C@H](CCC(=O)O)NC(=O)[C@H](Cc2ccc(-c3ccccc3)cc2)NC(=O)[C@H](C(C)C)NC(=O)[C@H](Cc2c[nH]c3ccccc23)NC(=O)[C@H](CC(=O)O)NC(=O)[C@H](Cc2ccc(OCC(=O)O)cc2)NC(=O)[C@H](CN)NC(=O)CSC[C@@H](C(=O)N[C@@H](C)C(N)=O)NC(=O)[C@H]([C@@H](C)O)NC(=O)[C@H](C(C)C)NC(=O)[C@H](CC2CCCCC2)NC(=O)[C@H](Cc2cnc[nH]2)NC1=O` [Compound 1518], the IC50 was 18.7 nM.

On to `CC(C)C[C@H]1NC(=O)[C@H](CCCN)NC(=O)[C@H](C(C)C)NC(=O)[C@H](Cc2ccc(-c3ccccc3)cc2)NC(=O)[C@H](C(C)C)NC(=O)[C@H](Cc2c[nH]c3ccccc23)NC(=O)[C@H](CC(=O)O)NC(=O)[C@H](Cc2ccc(OCC(=O)O)cc2)NC(=O)[C@H](CN)NC(=O)CSC[C@@H](C(=O)N[C@@H](C)C(N)=O)NC(=O)[C@H]([C@@H](C)O)NC(=O)[C@H](C(C)C)NC(=O)[C@H](CC2CCCCC2)NC(=O)[C@H](CC(N)=O)NC1=O` [Compound 1519] ({CH2CO}-[Dap]Y(Carboxymethyl)DWV[Bip]V[Orn][dL]N[Cha]VTCA-NH2; thioether N-14), for which the IC50 came to 7.7 nM.

For `CC(C)C[C@H]1NC(=O)[C@H](CCCN)NC(=O)[C@H](C(C)C)NC(=O)[C@H](Cc2ccc(-c3ccccc3)cc2)NC(=O)[C@H](C(C)C)NC(=O)[C@H](Cc2c[nH]c3ccccc23)NC(=O)[C@H](CC(=O)O)NC(=O)[C@H](Cc2ccc(OCC(=O)O)cc2)NC(=O)[C@H](CN)NC(=O)CSC[C@@H](C(=O)N[C@@H](C)C(N)=O)NC(=O)[C@H]([C@@H](C)O)NC(=O)[C@H](C(C)C)NC(=O)[C@H](CC2CCCCC2)NC(=O)[C@H](CCC(N)=O)NC1=O` [Compound 1520] ({CH2CO}-[Dap]Y(Carboxymethyl)DWV[Bip]V[Orn][dL]Q[Cha]VTCA-NH2; thioether N-14), the IC50 came out at 10.5 nM.

In the case of `CC(C)C[C@H]1NC(=O)[C@H](CCCN)NC(=O)[C@H](C(C)C)NC(=O)[C@H](Cc2ccc(-c3ccccc3)cc2)NC(=O)[C@H](C(C)C)NC(=O)[C@H](Cc2c[nH]c3ccccc23)NC(=O)[C@H](CC(=O)O)NC(=O)[C@H](Cc2ccc(OCC(=O)O)cc2)NC(=O)[C@H](CN)NC(=O)CSC[C@@H](C(=O)N[C@@H](C)C(N)=O)NC(=O)[C@H]([C@@H](C)O)NC(=O)[C@H](C(C)C)NC(=O)[C@H](CC2CCCCC2)NC(=O)[C@H](CC(=O)O)NC1=O` [Compound 1521] ({CH2CO}-[Dap]Y(Carboxymethyl)DWV[Bip]V[Orn][dL]D[Cha]VTCA-NH2; thioether N-14), the IC50 came to 17.7 nM.

Regarding `CC(C)C[C@H]1NC(=O)[C@H](CCCN)NC(=O)[C@H](C(C)C)NC(=O)[C@H](Cc2ccc(-c3ccccc3)cc2)NC(=O)[C@H](C(C)C)NC(=O)[C@H](Cc2c[nH]c3ccccc23)NC(=O)[C@H](CC(=O)O)NC(=O)[C@H](Cc2ccc(OCC(=O)O)cc2)NC(=O)[C@H](CN)NC(=O)CSC[C@@H](C(=O)N[C@@H](C)C(N)=O)NC(=O)[C@H]([C@@H](C)O)NC(=O)[C@H](C(C)C)NC(=O)[C@H](CC2CCCCC2)NC(=O)[C@H](CCC(=O)O)NC1=O` [Compound 1522] ({CH2CO}-[Dap]Y(Carboxymethyl)DWV[Bip]V[Orn][dL]E[Cha]VTCA-NH2; thioether N-14), the IC50 was found to be 23.3 nM.
